Laboratory results reported in US10577638B2, “Systems, devices, and methods for microbial detection and identification, and antimicrobial susceptibility testing” (Board of Regents, The University of Texas System, priority 2013, dated 2020).

Tested on: CA-MRSA clinical isolates and a wild type CA-MRSA strain
Assay: AST-Chip antibiotic susceptibility test of CA-MRSA clinical isolates (FUN-1 fluorescence)
Assay type: cell-based, Staphylococcus aureus
Conditions: isolates A32, K2 and B2 compared with isolates I27, D1, M2 and WT, 8 μg/ml, incubated 16 h
Method: The key steps in chip fabrication are described in below (these methods are also described in Srinivasan et al., which is incorporated by reference herein). The fabrication included three steps: (i) modification of the surface of glass slides with poly(styrene-co-maleic anhydride) (PSMA); (ii) printing spots of a 30 nl mixture of poly-l-lysine and barium chloride to create a “tie-layer” using a robotic microarrayer (Microsys, Digilab); and (iii) printing a 30 nl mixture of 0.5% alginate solution, optimized-growth medium and antimicrobial agents at various concentrations on top of the tie-layer. […]
The AST-Chip was benchmarked by evaluating the antimicrobial-susceptibility of a wild type strain of Staphylococcus aureus (UAMS-1) and CA-MRSA (USA 300) against methicillin. […] After incubation, the cell density at different spots was quantified using FUN-1, a vital fluorescent dye with excitation and emission wavelength that is compatible with a standard microarray scanner and facilitating faster read out (FIG. 6A). The fluorescence intensity of control (no drug) and sodium hypochlorite-treated dead biofilms were set at 100% and 0%, respectively. The inhibitory effects of the antimicrobial agents were determined by the reduction in fluorescence intensity in comparison to the controls (FIG. 6B). […]

Question: Which “relative susceptibility of isolates to the drug” value does the source give for `CN[C@H](CC(C)C)C(=O)N[C@H]1C(=O)N[C@@H](CC(N)=O)C(=O)N[C@H]2C(=O)N[C@H]3C(=O)N[C@H](C(=O)N[C@H](C(=O)O)c4cc(O)cc(O)c4-c4cc3ccc4O)[C@H](O)c3ccc(c(Cl)c3)Oc3cc2cc(c3O[C@@H]2O[C@H](CO)[C@@H](O)[C@H](O)[C@H]2O[C@H]2C[C@](C)(N)[C@H](O)[C@H](C)O2)Oc2ccc(cc2Cl)[C@H]1O` [vancomycin] here?
Answer: The value was “less susceptible”.
